Here are results for nine compounds from patent US5629406A, “Inhibitors of HIV protease” (Sankyo Company, Limited, priority 1992, dated 1997).

Values after ≈ are worked out from the molar mass of the structure shown. Counter-ions that a name gives are not always drawn. Like-named read-outs stand apart in the source and are kept apart here.

The target in one assay is HIV pol protease (Human immunodeficiency virus type 1 group M subtype B, UniProt P03366). The experiment in a line: Assay of the inhibition of HIV pol protease (synthetic substrate TE-2, HPLC of TE-3).
A further assay deals with Molt 4/HTLV IIIB. The assay can be described thus: Inhibition of the release of virus from Molt 4 cells chronically infected with HIV. The format is cell-based, HIV (HTLVIIIB). The method, then: Inhibition of the Release of Virus from Molt 4 Cells Chronically Infected with HIV (Molt 4/HTLV IIIB)
A Molt 4 cell line chronically infected with HIV, that is with HTLVIIIB, was established (Molt 4/HTLVIIIB). The cells were washed twice with growth medium (RPMI-1640 medium containing 10% v/v heat-inactivated fetal calf serum). The washed cells were then inoculated into growth medium at a density of 2×10^5 cells/ml, in the presence of selected concentrations of test compounds, at 37° C., and cultured under an atmosphere of 5% carbon dioxide.
After 48 hours, the test cultures were spun down at 1000×g for 3 minutes, and the supernatant was collected. Polyethylene glycol 6000 was added to the supernatant to a final concentration of 10% w/v, and the resulting solution was left to stand for 6 hours on ice. Virions precipitated by this procedure were subsequently obtained as a pellet by centrifuging the treated supernatants for 30 minutes at 10000×g. The amount of HIV antigen in the pellets was then determined using a commercial enzyme immunoassay (EIA) system [HIV antigen EIA kit, available from Abbot].
IC50 (the minimum concentration of test compound sufficient to reduce the amount of HIV antigen production by 50%, as determined by the EIA system) was used as a measure of anti-HIV activity.

Procedure for HIV pol protease: The Ki, that is the dissociation constant of the enzyme-inhibitor complex, measured according to the equation [formula]
A reaction mixture containing 1 mM or 1.5 mM of the substrate TE-2, having the structure described in European Patent Publication No. 498,680, 1 μl of the desired concentration of the compound to be tested (dissolved in dimethyl sulfoxide comprising 20% v/v water), 2 μl of the enzyme solution prepared as described in step (c), above, and buffer solution [50 mM tris HCl (pH 6.0), 0.25M sodium chloride, 0.1 mM ethylenediaminetetraacetic acid, 0.1 mM Triton X-100] to form 10 μl in total, was incubated for 30 minutes at 37° C.
The reaction was Stopped by the addition of 250 μl of a 0.1% w/v solution of aqueous trifluoroacetic acid and 10% v/v acetonitrile. The reaction mixture was then subjected to Sep-pak light™ chromatography (Waters Co., Milford, Mass., USA), and the fractions passing through the column were collected.
The substrate TE-2 is decomposed by the HIV protease to form a shortened peptide of four amino acids, (TE-3; having the structure described in European Patent Publication No. 498,680). The amount of TE-3 formed was assayed quantitatively using a high performance liquid chromatography (HPLC) column [ODS-120T (Trade Mark), 4.6 mm in inner diameter ×250 mm, To-So Co.] using a mixture of 9% acetonitrile-0.05% trifluoroacetic acid as the eluting solvent.
The Ki in nM was calculated according to the method of Michaelis-Menten using the equation given above.

Consider `CC(C)(C)NC(=O)[C@@H]1C[C@H](Cl)CN1C(=O)[C@@H](O)[C@H](Cc1ccccc1)NC(=O)[C@H](CC(N)=O)NC(=O)OCc1ccccc1` [Example 1, (4S)-1-[(2S,3S)-3-(N^2 -Benzyloxycarbonyl-L-asparaginyl)amino-2-hydroxy-4-phenylbutyryl]-N-t-butyl-4-chloro-L-prolinamide], for which the Ki (in general, a dissociation constant, usually derived from enzyme kinetics or from competition with a known ligand) on HIV pol protease came to 8 nM. On the same count and under the same terms, for `CC(C)(C)NC(=O)[C@@H]1C[C@@H](O)CN1C(=O)[C@@H](O)[C@H](Cc1ccccc1)NC(=O)[C@H](CC(N)=O)NC(=O)OCc1ccccc1` [Example 4, (4R)-1-[(2S,3S)-3-(N^2 -Benzyloxycarbonyl-L-asparaginyl)amino-2-hydroxy-4-phenylbutyryl]-N-t-butyl-4-hydroxy-L-prolinamide] the value was 56 nM. Take `CC(C)(C)NC(=O)[C@@H]1C[C@H](Cl)CN1C(=O)[C@@H](O)[C@H](Cc1ccccc1)NC(=O)[C@H](CC(N)=O)NC(=O)c1cnc2ccccc2n1` [Example 14, (4S)-1-{(2S,3S)-3-[N^2-(2-Quinoxalinecarbonyl)-L-asparaginyl]amino-2-hydroxy-4-phenylbutyryl}-N-t-butyl-4-chloro-L-prolinamide]: the IC50 in the assay with Molt 4/HTLV IIIB (Human immunodeficiency virus 1, IIIB, MOLT-4, 48 h, read-out: IC50 (concentration reducing HIV antigen production by 50%)) was 0.39 µg/mL (≈ 0.598 µM). This compound also showed an inhibition constant (Ki) at HIV pol protease of 4.7 nM.

Take `CC(C)(C)NC(=O)[C@@H]1CCCN1C(=O)[C@@H](O)[C@H](Cc1ccccc1)NC(=O)[C@H](CC(N)=O)NC(=O)COc1ccc(NC(=O)OCc2ccccc2)cc1` [Example 16, 1-[(2S,3S)-3-{N^2-[4-(Benzyloxycarbonylamino)phenoxyacetyl]-L-asparaginyl}amino-2-hydroxy-4-phenylbutyryl]-N-t-butyl-L-prolinamide]: the Ki at HIV pol protease amounted to 14 nM.

As to `CC(C)(C)NC(=O)[C@@H]1CCCN1C(=O)[C@@H](O)[C@H](Cc1ccccc1)NC(=O)[C@H](CC(N)=O)NC(=O)COc1ccc(N)cc1` [Example 17, 1-{(2S,3S)-3-[N^2-(4-Aminophenoxyacetyl)-L-asparaginyl)amino-2-hydroxy-4-phenylbutyryl]-N-t-butyl-L-prolinamide hydrochloride], the affinity at HIV pol protease, expressed as Ki, was 18.5 nM. On the same count and under the same terms, to `CC(C)(C)NC(=O)[C@@H]1CCCN1C(=O)[C@@H](O)[C@H](Cc1ccccc1)NC(=O)[C@H](CC(N)=O)NC(=O)COc1ccc(NC(=O)CN)cc1` [Example 18, 1-[(2S,3S)-3-{N^2-[4-(Glycylamino)phenoxyacetyl]-L-asparaginyl}amino-2-hydroxy-4-phenylbutyryl]-N-t-butyl-L-prolinamide hydrochloride] belongs 30 nM; to `CNc1ccc(OCC(=O)N[C@@H](CC(N)=O)C(=O)N[C@@H](Cc2ccccc2)[C@H](O)C(=O)N2CCC[C@H]2C(=O)NC(C)(C)C)cc1` [Example 20, 1-[(2S,3S)-3-{N^2-[4-(Methylamino)phenoxyacetyl]-L-asparaginyl}amino-2-hydroxy-4-phenylbutyryl]-N-t-butyl-L-prolinamide hydrochloride], 49 nM.

As to `CN(C)c1ccc(OCC(=O)N[C@@H](CC(N)=O)C(=O)N[C@@H](Cc2ccccc2)[C@H](O)C(=O)N2CCC[C@H]2C(=O)NC(C)(C)C)cc1` [Example 21, 1-[(2S,3S)-3-{N^2-[4-(N,N-Dimethylamino)phenoxyacetyl]-L-asparaginyl}amino-2-hydroxy-4-phenylbutyryl]-N-t-butyl-L-prolinamide], the Ki at HIV pol protease turned out to be 37 nM.

With `CC(C)(C)NC(=O)[C@@H]1C[C@@H]2CCCC[C@@H]2CN1C[C@@H](O)[C@H](Cc1ccccc1)NC(=O)[C@H](CC(N)=O)NC(=O)c1ccc2ccccc2n1` [Ro31-8959, 3-t-butylaminocarbonyl-2-{(2R, 3S)-3-[(N-2'-quinolinecarbonyl-L-asparaginyl)amino]-2-hydroxy-4-phenylbutyl}-(3S, 4aS, 8aS)-decahydroisoquinoline, reference compound], the “IC50 (concentration reducing HIV antigen production by 50%)” value in the assay on Molt 4/HTLV IIIB (Molt 4/HTLVIIIB cells, 48 hours, HIV antigen in precipitated virions by EIA) was greater than 20.0 µg/mL. For the same compound, the Ki at HIV pol protease (1 mM or 1.5 mM substrate TE-2, pH 6.0, 30 minutes at 37° C., calculated by Michaelis-Menten) is 58 nM.
